Results reported in patent publication US10782295B2, “Cysteine-reactive ligand discovery in proteomes” (THE SCRIPPS RESEARCH INSTITUTE, priority 2013, dated 2020).

Key:
IFIT3 = target: T1, IFIT3 (Homo sapiens, UniProt O14879); assay: competitive isoTOP-ABPP, MDA-MB-231 soluble proteome; format: binding; details: 100 μM LDE, 60 min; peptide GLNPLNAYSDLAEFLETEC*YQTPFNK
T1 construct: directly in native proteomes; endogenous in cells; host or cells: MDA-MB-231
T1 sequence (O14879 1-490): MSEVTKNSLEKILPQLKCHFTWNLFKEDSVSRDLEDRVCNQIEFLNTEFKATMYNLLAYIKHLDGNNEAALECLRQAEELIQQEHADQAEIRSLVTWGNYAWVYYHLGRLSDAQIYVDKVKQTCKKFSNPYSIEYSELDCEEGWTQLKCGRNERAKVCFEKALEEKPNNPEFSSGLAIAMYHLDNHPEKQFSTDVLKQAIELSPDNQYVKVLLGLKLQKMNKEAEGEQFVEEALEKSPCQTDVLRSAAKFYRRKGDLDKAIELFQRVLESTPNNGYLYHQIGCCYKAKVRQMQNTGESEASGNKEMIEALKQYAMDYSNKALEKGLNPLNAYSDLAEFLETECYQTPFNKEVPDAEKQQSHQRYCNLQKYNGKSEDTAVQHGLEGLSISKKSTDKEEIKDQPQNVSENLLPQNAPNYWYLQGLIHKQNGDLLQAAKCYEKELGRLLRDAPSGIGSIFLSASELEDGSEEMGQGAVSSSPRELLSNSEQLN
Experimental: (§1) Here, we envisioned that isoTOP-ABPP could be advanced to discover and quantify reactions between cysteines in proteomes and any electrophilic compound. In this advanced, ‘competitive’ version of isoTOP-ABPP (FIG. 1a), a proteome is treated with an electrophile (experimental sample) or DMSO (control sample). Both proteomic samples are then labeled with the IA probe and conjugated by CuAAC to light and heavy azide-biotin tags, respectively. The light and heavy samples are then mixed and subjected to our described isoTOP-ABPP protocol for enrichment, identification, and quantification of IA-labeled cysteines^30. Electrophile-modified cysteines are quantified by measuring the MS1 chromatographic peak ratios (R values) for heavy (DMSO-treated) over light (electrophile-treated) samples, with higher R values reflecting greater sensitivity to the electrophile. In this format, competitive isoTOP-ABPP can assay electrophiles against 1000+ cysteines in parallel directly in native proteomes without requiring any chemical modification to the electrophiles themselves.
(§2) Competitive isoTOP-ABPP experiments were performed in quadruplicate using the soluble proteome of the human breast cancer cell line MDA-MB-231 cell line. Proteomes were treated with 100 μM HNE, 15d-PGJ2, or 2-HD, for 60 minutes, followed by the IA-probe (100 μM, 60 min) A total of ˜1400 cysteine reactivities were quantified across the aggregate data set, with at least 900 cysteine reactivities quantified for each LDE (FIG. 2a) more than 750 of which were quantified for all the three electrophiles.
(§3) HNE was purchased from EMD biosciences, 15d-PGJ2 was purchased from Cayman Chemicals and 2-HD was purchased from Santa Cruz Biotechnology. Proteome samples were diluted to a 4 mg protein/mL solution in PBS. For each profiling experiment, one aliquot of the proteome sample (0.5 mL) was treated with 100 μM of LDE using 5 μL of a 10 mM stock and the other aliquot was treated with 5 μL of either ethanol (for HNE and 15d-PGJ2) or DMSO (for 2-HD) as control. For the concentration-dependent profiling experiments using HNE, aliquots of the proteomes (0.5 mL each) were treated with 5, 10, 50, 100 and 500 μM of HNE using 5 μL of 0.5, 1.0, 5, 10 and 50 mM of stock solution, respectively. After 60 minutes of treatment at room temperature, both the LDE-treated and control aliquots were passed through a NAP-5 Sephadex column (GE healthcare) to remove any unreacted LDE. The volume of each aliquot was increased to 1 mL with the concentration at 2 mg/mL after this step.
(§4) Each of the control and LDE-treated proteome samples (˜2 mg protein/mL in 1 mL volume) was treated with 100 μM of IA-probe using 10 μL of a 10 mM stock in DMSO. The labeling reactions were incubated at room temperature for 1 hour. Click chemistry (acetylene-azide cycloaddition) was performed by the addition of 100 μM of either the Heavy-TEV-Tag (for the control sample) or Light-TEV-Tag (for the LDE-treated sample) (20 μL of a 5 mM stock), 1 mM TCEP (fresh 50× stock in water), 100 μM ligand (17× stock in DMSO:t-Butanol 1:4) and 1 mM CuSO4 (50× stock in water). Samples were allowed to react at room temperature for 1 hour. After the click chemistry step, the light and heavy-labeled samples were mixed together and centrifuged (5900×g, 4 min, 4° C.) to pellet the precipitated proteins.
(§5) The pellets were washed twice in cold MeOH, after which the pellet was solubilized in PBS containing 1.2% SDS via sonication and heating (5 min, 80° C.). Samples were subjected to streptavidin enrichment of probe-labeled proteins, sequential on-bead trypsin and TEV digestion, and liquid chromatography-mass spectrometry (LC-MS) analysis according to the published isoTOP-ABPP protocol^30.
(§6) IA-probe labeled peptides were identified by SEQUEST2 and DTASelect3, and the quantification of heavy/light ratios (isoTOP-ABPP ratios, R) was performed by an in-house software (CIMAGE) as previously described. […]

TNRC5 = target: T2, TNRC5 (Homo sapiens, UniProt Q9BT09); assay: as above; format: binding; details: 100 μM LDE, 60 min; peptide QC*DVLVEEFEEVIEDWYR
T2 construct: directly in native proteomes; endogenous in cells; host or cells: MDA-MB-231
T2 sequence (Q9BT09 31-278): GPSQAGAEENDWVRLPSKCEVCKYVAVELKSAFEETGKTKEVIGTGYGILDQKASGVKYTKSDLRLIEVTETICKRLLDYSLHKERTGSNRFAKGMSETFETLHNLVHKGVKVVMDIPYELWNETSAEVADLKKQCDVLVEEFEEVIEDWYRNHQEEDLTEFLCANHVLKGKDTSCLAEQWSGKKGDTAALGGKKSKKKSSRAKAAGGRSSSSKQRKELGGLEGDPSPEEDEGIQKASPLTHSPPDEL
Experimental: as §1, §2, §3, §4, §5, §6

Row | SMILES | R value (isoTOP-ABPP ratio heavy/light) for IA-labeled cysteine of IFIT3 (IFIT3) | R value (isoTOP-ABPP ratio heavy/light) for IA-labeled cysteine of TNRC5 (TNRC5)
1 | CCCCCCCCCCCCC/C=C/C=O [2-HD, 2-trans-hexadecenal] | 1.23 | 1.06
2 | CCCCCC(O)/C=C/C=O (stereo not drawn) [4-HNE, 4-Hydroxynonenal] | 1.51 | 1.29
3 | CCCCC/C=C/C=C1/C(=O)C=C[C@@H]1C/C=C\CCCC(=O)O [PGJ2, 15-deoxy-Δ12,14-prostaglandin J2] | 9.43 | 11.77
